In ChEMBL document CHEMBL1158592, “Synthesis and biological evaluation of isoflavone fatty acid esters with potential weight loss and hypolipidemic activities” (Bioorg Med Chem, 2010):
Active and inactive are the calls of the source. No cut-off for these calls is given here.

Key:
[1] = system: Rattus norvegicus; experiment: Antiobese activity in high fat diet-fed Sprague-Dawley rat assessed as body fat mass measured per 100 g of body weight at 50 mg/kg, ig administered QD for 30 days (reference value: 6.4+/-1.4 g/100 g); type: functional; conditions: route intragastric
[2] = system: Rattus norvegicus; experiment: Antiobese activity in high fat diet-fed Sprague-Dawley rat assessed as body weight at 50 mg/kg, ig administered QD for 30 days (reference value: 355+/-36 g); type: functional; conditions: route intragastric
[3] = system: Rattus norvegicus; experiment: Antiobese activity in high fat diet-fed Sprague-Dawley rat assessed as plasma total cholesterol level at 50 mg/kg, ig administered QD for 30 days (reference value: 1.86+/-0.31 mmol/L); type: functional; conditions: route intragastric
[4] = system: Rattus norvegicus; experiment: Antiobese activity in high fat diet-fed Sprague-Dawley rat assessed as plasma triglyceride level at 50 mg/kg, ig administered QD for 30 days (reference value: 1.25+/-0.23 mmol/L); type: functional; conditions: route intragastric
[5] = system: Rattus norvegicus; experiment: Antiobese activity in high fat diet-fed Sprague-Dawley rat assessed as plasma free fatty acid level at 50 mg/kg, ig administered QD for 30 days (reference value: 785.6+/-175.8 umol/L); type: functional; conditions: route intragastric
[6] = system: 3T3-L1; experiment: Inhibition of mouse 3T3L1 cells differentiation after 48 hrs by oil-red-O staining; type: functional, cell-based
[7] = system: 3T3-L1; experiment: Decrease in triglyceride content in mouse 3T3L1 cells assessed as reduction of lipid droplets after 48 hrs by oil-red-O staining; type: functional, cell-based
[8] = system: 3T3-L1; experiment: Increase in PPARgamma mRNA levels in mouse 3T3L1 cells at 100 umol/L by RT-PCR; type: functional, cell-based
[9] = system: Mus musculus; experiment: Hypolipidemic activity in high fat diet-fed C57BL/6 mouse assessed as decrease in plasma total cholesterol level at 200 mg/kg, ig administered QD for 4 weeks; type: functional, organism-based; set-up: dose 200 mg/kg
[10] = system: Mus musculus; experiment: Hypolipidemic activity in high fat diet-fed C57BL/6 mouse assessed as increase in plasma HDL level at 200 mg/kg, ig administered QD for 4 weeks; type: functional, organism-based; set-up: dose 200 mg/kg
[11] = system: Mus musculus; experiment: Hypolipidemic activity in high fat diet-fed C57BL/6 mouse assessed as decrease in plasma triglyceride level at 200 mg/kg, ig administered QD for 4 weeks; type: functional, organism-based; set-up: dose 200 mg/kg
[12] = system: Mus musculus; experiment: Hypolipidemic activity in high fat diet-fed C57BL/6 mouse assessed as decrease in plasma LDL level at 200 mg/kg, ig administered QD for 4 weeks; type: functional, organism-based; set-up: dose 200 mg/kg
[13] = system: Rattus norvegicus; experiment: Antiobese activity in high fat diet-fed Sprague-Dawley rat assessed as body weight at 10 mg/kg, ig administered QD for 30 days (reference value: 355+/-36 g); type: functional; conditions: route intragastric
[14] = system: Rattus norvegicus; experiment: Antiobese activity in high fat diet-fed Sprague-Dawley rat assessed as plasma triglyceride level at 10 mg/kg, ig administered QD for 30 days (reference value: 1.25+/-0.23 mmol/L); type: functional; conditions: route intragastric
[15] = system: Rattus norvegicus; experiment: Antiobese activity in high fat diet-fed Sprague-Dawley rat assessed as plasma free fatty acid level at 10 mg/kg, ig administered QD for 30 days (reference value: 785.6+/-175.8 umol/L); type: functional; conditions: route intragastric
[16] = system: Rattus norvegicus; experiment: Antiobese activity in high fat diet-fed Sprague-Dawley rat assessed as body fat mass measured per 100 g of body weight at 10 mg/kg, ig administered QD for 30 days (reference value: 6.4+/-1.4 g/100 g); type: functional; conditions: route intragastric
[17] = system: Rattus norvegicus; experiment: Antiobese activity in high fat diet-fed Sprague-Dawley rat assessed as plasma total cholesterol level at 10 mg/kg, ig administered QD for 30 days (reference value: 1.86+/-0.31 mmol/L); type: functional; conditions: route intragastric
[18] = system: 3T3-L1; experiment: Inhibition of mouse 3T3L1 cells differentiation assessed as morphological changes after 48 hrs by oil-red-O staining; type: functional, cell-based
[19] = system: Mus musculus; experiment: Hypolipidemic activity in high fat diet-fed C57BL/6 mouse assessed as decrease in plasma triglyceride level at 50 mg/kg, ig administered QD for 4 weeks; type: functional, organism-based; set-up: dose 50 mg/kg
[20] = system: Mus musculus; experiment: Reduction in plasma insulin level in high fat diet-fed C57BL/6 mouse at 50 mg/kg, ig administered QD for 4 weeks; type: functional, organism-based; set-up: dose 50 mg/kg
[21] = system: Mus musculus; experiment: Hypolipidemic activity in high fat diet-fed C57BL/6 mouse assessed as decrease in plasma total cholesterol level at 50 mg/kg, ig administered QD for 4 weeks; type: functional, organism-based; set-up: dose 50 mg/kg
[22] = Acute toxicity in ig dosed KM mouse by Bliss method; type: organism-based; conditions: in vivo, po
[23] = system: 3T3-L1; experiment: Antiproliferative activity against mouse 3T3L1 cells after 48 hrs by MTT assay; type: functional, cell-based
[24] = system: Mus musculus; experiment: Hypolipidemic activity in high fat diet-fed C57BL/6 mouse assessed as decrease in plasma LDL level at 50 mg/kg, ig administered QD for 4 weeks; type: functional, organism-based; set-up: dose 50 mg/kg
[25] = system: Mus musculus; experiment: Hypolipidemic activity in high fat diet-fed C57BL/6 mouse assessed as increase in plasma HDL level at 50 mg/kg, ig administered QD for 4 weeks; type: functional, organism-based; set-up: dose 50 mg/kg

SMILES | Activity [1] [g/100 g body weight] | Activity [2] [g] | Activity [3] [mmol/L] | Activity [4] [mmol/L] | Activity [5] [µmol/L] | inhibition [6] | Activity [7] | Activity [8] | also measured
CCCCCCCCCCCCCCCCCC(=O)Oc1ccc(-c2coc3cc(OC)ccc3c2=O)cc1 | 6 | 352 | 1.71 | 1.35 | 738.1 | – | – | – | –
CCCCCCCCCCCCCCCCCC(=O)Oc1ccc2c(=O)c(-c3ccc(OC)cc3)coc2c1 | 5.4 | 320 | 1.57 | 1.19 | 730.2 | Active | Active | inactive | –
O=C(O[C@H]1[C@H](OC(=O)c2cccnc2)[C@@H](OC(=O)c2cccnc2)[C@H](OC(=O)c2cccnc2)[C@@H](OC(=O)c2cccnc2)[C@H]1OC(=O)c1cccnc1)c1cccnc1 | – | – | – | – | – | – | – | – | Activity [9]: Active; Activity [10]: Active; Activity [11]: Active; Activity [12]: Active
CC(C)CC(N(C)C)C1(c2ccc(Cl)cc2)CCC1 (stereo unspecified) [SIBUTRAMINE] | – | – | – | – | – | – | – | – | Activity [13]: 301 g; Activity [14]: 0.97 mmol/L; Activity [15]: 609.6 µmol/L; Activity [16]: 4.3 g; Activity [17]: 1.32 mmol/L
CCCCCCCC/C=C\CCCCCCCC(=O)Oc1ccc2c(=O)c(-c3ccc(OC)cc3)coc2c1 [OLEOYL FORMONONETIN] | 5 | 309 | 1.31 | 0.91 | 606.7 | Active | Active | Active | inhibition [18]: Active; Activity [19]: Active; Activity [20]: Active; Activity [21]: Active; LD50 [22]: 2160 mg/kg; Activity [23]: Active; Activity [24]: Active; Activity [25]: Active
CCc1ccc(CCOc2ccc(CC3SC(=O)NC3=O)cc2)nc1 (stereo unspecified) | – | – | – | – | – | – | – | Active | –
CCCCCCCCCCCCCCCC(=O)Oc1ccc2c(=O)c(-c3ccc(OC)cc3)coc2c1 | – | – | – | – | – | Active | Active | inactive | –
CCCCC/C=C\C/C=C\CCCCCCCC(=O)Oc1ccc(-c2coc3cc(OC)ccc3c2=O)cc1 | 5.1 | 318 | 1.67 | 1.03 | 658.8 | – | – | – | –
CCCCC/C=C\C/C=C\CCCCCCCC(=O)Oc1ccc2c(=O)c(-c3ccc(OC)cc3)coc2c1 | 4.3 | 307 | 1.28 | 0.99 | 603.8 | Active | Active | Active | –
CCCCCCCC/C=C\CCCCCCCC(=O)Oc1ccc(-c2coc3cc(OC)ccc3c2=O)cc1 | 5.6 | 328 | 1.65 | 1.01 | 696.3 | – | – | – | –
COc1ccc(-c2coc3cc(O)ccc3c2=O)cc1 | – | – | – | – | – | – | – | Active | –
